Measured values reported in patent US9902733B2, “Furopyridines as inhibitors of protein kinases” (MASARYKOVA UNIVERZITA, priority 2014, dated 2018).

What was measured:
CLK4 (h) = target: T1, CLK4 (h) (Homo sapiens, UniProt Q9HAZ1); test: CLK4 KinaseProfiler radiometric protein kinase assay; assay type: biochemical; details: 15 μM ATP, 40 minutes at room temperature
T1 construct: purchased Merck Millipore (KinaseProfiler service)
Experimental: (§1) In vitro essays were performed by the company Merck Millipore in their KinaseProfiler radiometric protein kinase assay as paid commercial service. The compounds IC50 values for inhibition of individual protein kinases were determined. Dose-response curves were plotted from inhibition data generated, each in duplicate, from 10 point serial dilutions of inhibitory compounds. Concentration of compound was plotted against % kinase activity. To generate IC50 values, the dose-response curves were fitted to a standard sigmoidal curve and IC50 values were derived by standard nonlinear regression analysis.
(§2) All tested compounds were prepared in 100% DMSO to final assay concentrations either 0.5 mM (for the concentration row A, see below) or 0.05 mM (for the concentration row B). This working stock of the compound was added to the assay well as the first component in the reaction, followed by the remaining components as detailed below. The stock solution was added to the individual assay wells in such amounts that the concentrations of the compound were either in the row A (0.001 μM, 0.003 μM, 0.01 μM, 0.03 μM, 0.1 μM, 0.3 μM, 1.0 μM, 3.0 μM, and 10.0 μM) or in the row B (0.0001 μM, 0.0003 μM, 0.001 μM, 0.003 μM, 0.01 μM, 0.03 μM, 0.1 μM, 0.3 μM, and 1.0 μM). There was no pre-incubation step between the compound and the kinase prior to initiation of the reaction.
(§3) The positive control wells contained all components of the reaction, except the compound of interest; however, DMSO (at a final concentration of 2%) was included in these wells to control for solvent effects. The blank wells contained all components of the reaction, with staurosporine as a reference inhibitor replacing the compound of interest. This abolished kinase activity and established the base-line (0% kinase activity remaining).
CLK4 (h) was diluted in the buffer (20 mM MOPS, 1 mM EDTA, 0.01% Brij-35, 5% Glycerol, 0.1% β-mercaptoethanol, 1 mg/mL BSAs) to the concentration of 1.01 mg/mL prior to addition to the reaction mix.
The above stock solution of CLK4(h) was added to a mixture containing 8 mM MOPS pH 7.0, 0.2 mM EDTA, and 200 μM […](p) EDEEE in such amount that the resulting concentration of CLK4(h) was 140.8 nM. This mixture was added to the stock solution of the tested compound. The reaction was initiated by the addition of the MgATP mix in such amount that the resulting concentration of Mg acetate in the reaction mixture was 10 mM and [γ-^33P-ATP] (specific activity approx. 500 cpm/pmol) was 15 μM. After incubation for 40 minutes at room temperature, the reaction was stopped by the addition of 3% phosphoric acid solution. 10 μL of the reaction was then spotted onto a P30 filtermat and washed three times for 5 minutes in 75 mM phosphoric acid and once in methanol prior to drying and scintillation counting.

HIPK1(h) = target: T2, HIPK1(h) (Homo sapiens, UniProt Q86Z02); test: HIPK1 KinaseProfiler radiometric protein kinase assay; assay type: biochemical; details: 45 μM ATP, 40 minutes at room temperature
T2 construct: purchased Merck Millipore (KinaseProfiler service)
T2 sequence (Q86Z02 whole entry): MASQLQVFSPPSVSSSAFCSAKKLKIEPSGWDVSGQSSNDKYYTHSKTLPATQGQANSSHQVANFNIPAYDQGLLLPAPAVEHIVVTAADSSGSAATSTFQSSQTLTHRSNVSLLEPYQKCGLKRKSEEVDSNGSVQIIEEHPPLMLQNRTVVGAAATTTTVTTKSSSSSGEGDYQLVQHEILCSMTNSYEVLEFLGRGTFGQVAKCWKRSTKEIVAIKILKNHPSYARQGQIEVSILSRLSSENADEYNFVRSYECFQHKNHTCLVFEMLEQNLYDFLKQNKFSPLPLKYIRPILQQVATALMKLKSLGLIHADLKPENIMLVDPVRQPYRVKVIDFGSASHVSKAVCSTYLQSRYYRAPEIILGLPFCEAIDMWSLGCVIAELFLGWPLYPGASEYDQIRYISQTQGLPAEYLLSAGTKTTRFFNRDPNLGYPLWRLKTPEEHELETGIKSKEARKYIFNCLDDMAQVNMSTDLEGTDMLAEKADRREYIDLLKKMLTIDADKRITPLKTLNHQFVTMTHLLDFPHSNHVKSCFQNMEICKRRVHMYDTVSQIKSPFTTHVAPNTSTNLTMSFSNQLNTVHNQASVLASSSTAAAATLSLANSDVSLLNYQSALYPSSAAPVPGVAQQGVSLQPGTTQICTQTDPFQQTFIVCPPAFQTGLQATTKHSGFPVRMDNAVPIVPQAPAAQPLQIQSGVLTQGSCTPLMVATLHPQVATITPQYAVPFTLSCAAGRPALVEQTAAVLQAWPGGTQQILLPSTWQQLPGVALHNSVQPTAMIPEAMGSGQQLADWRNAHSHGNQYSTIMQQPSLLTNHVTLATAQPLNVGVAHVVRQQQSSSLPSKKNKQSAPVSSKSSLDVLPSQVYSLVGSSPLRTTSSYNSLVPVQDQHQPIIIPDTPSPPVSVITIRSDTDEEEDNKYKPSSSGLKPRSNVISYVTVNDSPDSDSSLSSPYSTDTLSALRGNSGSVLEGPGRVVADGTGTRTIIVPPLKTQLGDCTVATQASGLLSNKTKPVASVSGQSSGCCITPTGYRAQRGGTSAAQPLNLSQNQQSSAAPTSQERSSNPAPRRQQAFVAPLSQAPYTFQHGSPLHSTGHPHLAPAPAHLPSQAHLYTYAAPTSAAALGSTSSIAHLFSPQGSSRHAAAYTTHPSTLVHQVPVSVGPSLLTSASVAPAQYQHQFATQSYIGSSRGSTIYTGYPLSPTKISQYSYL
Experimental: as §1, §2, §3
HIPK1(h) was diluted in the buffer (20 mM MOPS, 1 mM EDTA, 0.01% Brij-35, 5% Glycerol, 0.1% β-mercaptoethanol, 1 mg/mL BSAs) to the concentration of 1.01 mg/mL prior to addition to the reaction mix.
The above stock solution of HIPK1(h) was added to a mixture containing 8 mM MOPS pH 7.0, 0.2 mM EDTA, and 0.33 mg/mL myelin basic protein in such amount that the resulting concentration of HIPK1(h) was 4.7 nM. This mixture was added to the stock solution of the tested compound. The reaction was initiated by the addition of the MgATP mix in such amount that the resulting concentration of Mg acetate in the reaction mixture was 10 mM and [γ-^33P-ATP] (specific activity approx. 500 cpm/pmol) was 45 μM. After incubation for 40 minutes at room temperature, the reaction was stopped by the addition of 3% phosphoric acid solution. 10 μL of the reaction was then spotted onto a P30 filtermat and washed three times for 5 minutes in 75 mM phosphoric acid and once in methanol prior to drying and scintillation counting.

T1 sequence (Q9HAZ1 whole entry): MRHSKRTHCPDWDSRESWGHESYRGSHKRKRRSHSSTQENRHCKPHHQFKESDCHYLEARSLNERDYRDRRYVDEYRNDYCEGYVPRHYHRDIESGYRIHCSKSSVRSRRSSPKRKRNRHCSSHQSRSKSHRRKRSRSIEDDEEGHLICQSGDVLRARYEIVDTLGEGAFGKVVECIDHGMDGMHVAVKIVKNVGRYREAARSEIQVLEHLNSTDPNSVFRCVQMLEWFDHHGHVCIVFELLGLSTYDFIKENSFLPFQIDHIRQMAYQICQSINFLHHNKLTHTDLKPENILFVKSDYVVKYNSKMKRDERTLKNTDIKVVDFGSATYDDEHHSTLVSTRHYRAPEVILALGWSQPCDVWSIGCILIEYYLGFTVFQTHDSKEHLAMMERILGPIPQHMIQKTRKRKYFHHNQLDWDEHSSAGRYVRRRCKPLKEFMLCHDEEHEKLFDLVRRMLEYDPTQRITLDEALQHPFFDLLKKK

| Structure (SMILES) | IC50 (CLK4 (h)) [nM] | IC50 (HIPK1(h)) [nM] |
| --- | --- | --- |
| Cn1cc(-c2ccc3occ(-c4ccccc4)c3n2)cn1 [Preparative Example 6A] | < 100 | < 1000 |
| c1ccc(-c2coc3ccc(-c4cn[nH]c4)nc23)cc1 [Preparative Example 9] | < 100 | < 100 |
